Data: patent publication US6784201B2, “Benzothiepines having activity as inhibitors of ileal bile acid transport and taurocholate uptake” (G.D. Searle & Company, priority 1994, dated 2004)
Read-outs that look alike come from different tables or passages of the source.

Key:
human IBAT = biological target: T1, human IBAT (Homo sapiens, UniProt Q12908); assay: In vitro assay of IBAT-mediated uptake of [14C]-taurocholate (TC) in H14 cells; format: cell-based
T1 construct: expressed in transfected cells; host or cells: Baby hamster kidney (BHK) cells, clone H14
T1 sequence (Q12908 1-348): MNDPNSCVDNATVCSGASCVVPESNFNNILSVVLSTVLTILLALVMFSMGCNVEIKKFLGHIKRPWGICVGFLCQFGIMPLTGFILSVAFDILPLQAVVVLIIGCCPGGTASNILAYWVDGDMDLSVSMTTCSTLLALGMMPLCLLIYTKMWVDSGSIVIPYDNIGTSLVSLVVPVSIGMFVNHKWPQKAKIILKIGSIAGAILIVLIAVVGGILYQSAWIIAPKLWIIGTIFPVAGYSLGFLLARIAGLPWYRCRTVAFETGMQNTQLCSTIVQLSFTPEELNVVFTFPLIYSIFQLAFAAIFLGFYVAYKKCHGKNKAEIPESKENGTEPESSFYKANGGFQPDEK
Method in brief: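 BHK cells stably expressing human IBAT (H14) were incubated 2 h at 37° C with compound and 3 μM final [14C]-taurocholate in DMEM (4.5 g/L glucose) plus 0.2% fatty acid-free BSA. After cold PBS washes, cell-associated radioactivity was measured by scintillation counting.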

H14 cells = assay: In vitro assay of uptake of [14C]-alanine; format: cell-based, hamster; settings: Mesocricetus auratus
Procedure: Baby hamster kidney cells (BHK) transfected with the cDNA of human IBAT (H14 cells) are seeded at 60,000 cells/well in 96 well Top-Count tissue culture plates for assays run within in 24 hours of seeding, 30,000 cells/well for assays run within 48 hours, and 10,000 cells/well for assays run within 72 hours.
On the day of assay, the cell monolayer is gently washed once with 100 μl assay buffer (Dulbecco's Modified Eagle's medium with 4.5 g/L glucose+0.2% (w/v) fatty acid free bovine serum albumin-(FAF)BSA). To each well 50 μl of a two-fold concentrate of test compound in assay buffer is added along with 50 μl of 6 μM [^14C]-taurocholate in assay buffer (final concentration of 3 μM [^14C]-taurocholate). The cell culture plates are incubated 2 hours at 37° C. prior to gently washing each well twice with 100 μl 4° C. Dulbecco's phosphate-buffered saline (PBS) containing 0.2% (w/v) (FAF)BSA. The wells are then gently washed once with 100 μl 4° C. PBS without (FAF)BSA. To each 200 μl of liquid scintillation counting fluid is added, the plates are heat sealed and shaken for 30 minutes at room temperature prior to measuring the amount of radioactivity in each well on a Packard Top-Count instrument.
In Vitro Assay of Compounds that Inhibit Uptake of [^14C3-Alanine
The alanine uptake assay is performed in an identical fashion to the taurocholate assay, with the exception that labeled alanine is substituted for the labeled taurocholate.

[1] = tested on: Rat Ileal Uptake of [14C]-Taurocholate; assay: In vivo assay of rat ileal uptake of [14C]-taurocholate into bile (ileal loop); settings: Rattus norvegicus; 0.5 mM; read-out: % of Control Transport of TC in Rat Ileum
Procedure: In Vivo Assay of Compounds that Inhibit Rat Ileal Uptake of [^14C]-Taurocholate into Bile
(See “Metabolism of 3α,7β-dihydroxy-7α-methyl-5β-cholanoic acid and 3α,7β-dihydroxy-7α-methyl-5β-cholanoic acid in hamsters” in Biochimica et Biophysica Acta 833 (1985) 196-202 by Une et al.)
Male wistar rats (200-300 g) are anesthetized with inactin @100 mg/kg. Bile ducts are cannulated with a 10″ length of PE10 tubing. The small intestine is exposed and laid out on a gauze pad. A canulae (⅛″ luer lock, tapered female adapter) is inserted at 12 cm from the junction of the small intestine and the cecum. A slit is cut at 4 cm from this same junction (utilizing a 8 cm length of ileum). 20 ml of warm Dulbecco's phosphate buffered saline, pH 6.5 (PBS) is used to flush out the intestine segment. The distal opening is cannulated with a 20 cm length of silicone tubing (0.02″ I.D.×0.037″ O.D.). The proximal cannulae is hooked up to a peristaltic pump and the intestine is washed for 20 min with warm PBS at 0.25 ml/min. Temperature of the gut segment is monitored continuously. At the start of the experiment, 2.0 ml of control sample ([^14C]-taurocholate @ 0.05 mi/ml with 5 mM cold taurocholate) is loaded into the gut segment with a 3 ml syringe and bile sample collection is begun. Control sample is infused at a rate of 0.25 ml/min for 21 min. Bile samples fractions are collected every 3 minute for the first 27 minutes of the procedure. After the 21 min of sample infusion, the ileal loop is washed out with 20 ml of warm PBS (using a 30 ml syringe), and then the loop is washed out for 21 min with warm PBS at 0.25 ml/min. A second perfusion is initiated as described above but this with test compound being administered as well (21 min administration followed by 21 min of wash out) and bile sampled every 3 min for the first 27 min. If necessary, a third perfusion is performed as above that typically contains the control sample.

fecal bile acid (FBA) = assay: Rat gavage assay (fecal bile acid increase); format: in vivo
Procedure: Male Wister rats (275-300 g) are administered IBAT inhibitors using an oral gavage procedure. Drug or vehicle (0.2% Tween 80 in water) is administered once a day (9:00-10:0 a.m.) for 4 days at varying dosages in a final volume of 2 mL per kilogram of body weight. Total fecal samples are collected during the final 48 hours of the treatment period and analyzed for bile acid content using an enzymatic assay as described below. Compound efficacy is determined by comparison of the increase in fecal bile acid (FBA) concentration in treated rats to the mean FBA concentration of rats in the vehicle group.
Measurement of Fecal Bile Acid Concentration (FBA)
Total fecal output from individually housed hamsters was collected for 24 or 48 hours, dried under a stream of nitrogen, pulverized and weighed. Approximately 0.1 gram was weighed out and extracted into an organic solvent (butanol/water). Following separation and drying, the residue was dissolved in methanol and the amount of bile acid present was measured enzymatically using the 3α-hydroxysteroid steroid dehydrogenase reaction with bile acids to reduce NAD. (Reference: Mashige, F., et al. (1981) Clin. Chem. 27, 1352).

[2] = In Vitro Taurocholate Uptake, Table 10, read-out: Human TC IC50

Compound | IC50 (human IBAT; H14 cells, Table 5, read-out: IC50 uM (In vitro Taurocholate Cell Uptake)) [µM] | inhibition at 100 µM (H14 cells) [%] | activity at 500 µM [1] [%] | Delta (micromoles fecal bile acid per day) (fecal bile acid (FBA); dose 2 mg/kg/day) | Delta (micromoles fecal bile acid per day) (fecal bile acid (FBA); dose .016 mg/kg/day) | Delta (micromoles fecal bile acid per day) (fecal bile acid (FBA); dose .08 mg/kg/day) | Delta (micromoles fecal bile acid per day) (fecal bile acid (FBA); dose .4 mg/kg/day) | IC50 (human IBAT; [2]) [µM] | melting point [°C] | inhibition at 6.25 µM (H14 cells; @ 6.25 μM, read-out: Alanine Uptake Percent Inhibition @ μM) [%] | Delta (micromoles fecal bile acid per day) (fecal bile acid (FBA); dose 5 mg/kg/day) | Delta (micromoles fecal bile acid per day) (fecal bile acid (FBA); dose .04 mg/kg/day) | Delta (micromoles fecal bile acid per day) (fecal bile acid (FBA); dose .2 mg/kg/day)
CCCC[C@]1(CC)CS(=O)(=O)c2ccccc2[C@@H](c2ccccc2)C1=O (relative stereo) [Example 5b, trans-3-Butyl-3-ethyl-5-phenyl-2,3-dihydro-benzothiepin-(5H) 4-one-1,1-dioxide] | 40 | 0 | 72.9 ± 5.4 |  |  |  |  |  |  |  |  |  | 
CCCCC1(CCCC)CS(=O)(=O)c2ccc(N(C)C)cc2[C@@H](c2ccc(OCCCCC[N+](C)(C)CCCCCC[N+](C)(C)CCCCCOc3ccc([C@@H]4c5cc(N(C)C)ccc5S(=O)(=O)CC(CCCC)(CCCC)[C@@H]4O)cc3)cc2)[C@H]1O (relative stereo) [Example 1419, [4R-[4a,5a(4R*,5R*)]]-N,N′-bis[5-[4-[3,3-Dibutyl-7-(dimethylamino)-2,3,4,5-tetrahydro-4-hydroxy-1,1-dioxido-1-benzothiepin-5-yl]phenoxy]pentyl]-N,N,N′N′-tetramethyl-1,6-hexanediaminium dichloride] |  |  |  | 28.5 micromoles fecal bile acid per day | 5.8 micromoles fecal bile acid per day | 10.3 micromoles fecal bile acid per day | 13.9 micromoles fecal bile acid per day | 0.003 | 178 to 182 |  |  |  | 
CC1(C)CS(=O)(=O)c2ccc(N)cc2[C@@H](c2ccccc2)[C@H]1O [Example 288] |  |  |  |  |  |  |  |  | 185 to 186 | 10 |  |  | 
CCCCC1(CCCC)CS(=O)(=O)c2ccc(N(C)C)cc2[C@@H](c2ccc(OCCCCCC(C(=O)O)C(=O)O)cc2)[C@H]1O [Example 1413, (4S-cis)-[5-[4-[3,3-Dibutyl-7-(dimethylamino)-2,3,4,5-tetrahydro-4-hydroxy-1,1-dioxido-1-benzothiepin-5-yl]phenoxy]pentyl]propanedioic acid] |  |  |  |  |  |  |  | 0.003 | 118 |  | 52.3 micromoles fecal bile acid per day | 19 micromoles fecal bile acid per day | 42.4 micromoles fecal bile acid per day
CCCCC1(CCCC)CS(=O)(=O)c2ccc(N(C)C)cc2[C@@H](c2ccc(OCCCCC[N+](C)(C)CC[N+](C)(C)CC)cc2)[C@H]1O [Example 1418, (4R-cis)-N-[5-[4-[3,3-Dibutyl-7-(dimethylamino)-2,3,4,5-tetrahydro-4-hydroxy-1,1-dioxido-1-benzothiepin-5-yl]phenoxy]pentyl]-N′-ethyl-N,N,N′,N′-tetramethyl-1,2-ethanediaminium dichloride] |  |  |  | 20.3 micromoles fecal bile acid per day | −10 micromoles fecal bile acid per day | −4.6 micromoles fecal bile acid per day | 29.5 micromoles fecal bile acid per day | < 0.001 | 193 to 197 |  |  |  | 
CCCCC1(CCCC)CS(=O)(=O)c2ccc(N(C)C)cc2[C@@H](c2ccc(OCCCCCc3nn[nH]n3)cc2)[C@H]1O [Example 1420, (4R-cis)-3,3-Dibutyl-7-(dimethylamino)-2,3,4,5-tetrahydro-5-[4-[[5-(1H-tetrazol-5-yl)pentyl]oxy]phenyl]-1-benzothiepin-4-ol 1,1-dioxide] |  |  |  | 53.1 micromoles fecal bile acid per day | 29.6 micromoles fecal bile acid per day | 38.1 micromoles fecal bile acid per day | 45 micromoles fecal bile acid per day | 0.011 | 80 to 85 |  |  |  | 
CCCCC1(CCCC)CS(=O)(=O)c2ccc(N(C)C)cc2[C@@H](c2ccc(OCCCCCOc3cc(C(=O)O)nc(C(=O)O)c3)cc2)[C@H]1O [Example 1421] |  |  |  | 57.8 micromoles fecal bile acid per day | 4.7 micromoles fecal bile acid per day | 25.3 micromoles fecal bile acid per day | 27.7 micromoles fecal bile acid per day | 0.004 | 143 |  |  |  | 
CCCCC1(CCCC)CS(=O)(=O)c2ccc(N(C)C)cc2[C@@H](c2ccc(OCc3ccc(C(=O)O)cc3)cc2)[C@H]1O [Example 1424, (4R-cis)-4-[[4-[3,3-Dibutyl-7-(dimethylamino)-2,3,4,5-tetrahydro-4-hydroxy-1,1-dioxido-1-benzothiepin-5-yl]phenoxy]methyl]benzoic acid] |  |  |  |  |  |  |  | 0.014 | 156 to 159 |  |  |  | 
CCCCC1(CCCC)CS(=O)(=O)c2ccc(N(C)C)cc2[C@@H](c2ccc(OCc3cccc(CCC(=O)O)n3)cc2)[C@H]1O [Example 1430, (4R-cis)-6-[[4-[3,3-Dibutyl-7-(dimethylamino)-2,3,4,5-tetrahydro-4-hydroxy-1,1-dioxido-1-benzothiepin-5-yl]phenoxy]methyl]-2-pyridinepropanoic acid] |  |  |  | 51.2 micromoles fecal bile acid per day | −5.6 micromoles fecal bile acid per day | 20.7 micromoles fecal bile acid per day | 50.4 micromoles fecal bile acid per day | 0.003 | 105 to 107 |  |  |  | 
CCCCC1(CCCC)CS(=O)(=O)c2ccc(N(C)C)cc2[C@@H](c2ccc(OCCOCCC(C(=O)O)C(=O)O)cc2)[C@H]1O [Example 1432, (4S-cis)-[2-[2-[4-[3,3-Dibutyl-7-(dimethylamino)-2,3,4,5-tetrahydro-4-hydroxy-1,1-dioxido-1-benzothiepin-5-yl]phenoxy]ethoxy]ethyl]propanedioic acid] |  |  |  |  |  |  |  | 0.026 | 119.5 |  | 36.2 micromoles fecal bile acid per day | 2.4 micromoles fecal bile acid per day | 9.7 micromoles fecal bile acid per day
